Results taken from PubChem BioAssay (NCI).
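Growth conditions: 96-well plates. Treatment: test compound, 48 hours, 5 concentrations. Analysis: linear interpolation between bracketing concentrations; unreached endpoints set to highest concentration. The concentration for 50% growth inhibition is given as GI50. The concentration for full growth arrest is given as TGI.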

Assays:
Test in all cases: DTP human tumour cell line panel, 48 h
COLO 205 colon = tested on: COLO 205 colon
HCC-2998 colon = tested on: HCC-2998 colon
SW-620 colon = tested on: SW-620 colon
NCI-H23 lung = tested on: NCI-H23 lung
MDA-MB-231 breast = tested on: MDA-MB-231 breast
HCT-116 colon = tested on: HCT-116 colon
RXF 393 renal = tested on: RXF 393 renal
U251 CNS = tested on: U251 CNS
SK-MEL-5 melanoma = tested on: SK-MEL-5 melanoma
SK-MEL-2 melanoma = tested on: SK-MEL-2 melanoma

Compound | GI50 (COLO 205 colon) [µM] | TGI (COLO 205 colon) [µM] | GI50 (HCC-2998 colon) [µM] | TGI (HCC-2998 colon) [µM] | GI50 (SW-620 colon) [µM] | TGI (SW-620 colon) [µM] | GI50 (NCI-H23 lung) [µM] | TGI (NCI-H23 lung) [µM] | GI50 (MDA-MB-231 breast) [µM] | TGI (MDA-MB-231 breast) [µM] | GI50 (HCT-116 colon) [µM] | TGI (HCT-116 colon) [µM] | GI50 (RXF 393 renal) [µM] | TGI (RXF 393 renal) [µM] | GI50 (U251 CNS) [µM] | TGI (U251 CNS) [µM] | GI50 (SK-MEL-5 melanoma) [µM] | TGI (SK-MEL-5 melanoma) [µM] | GI50 (SK-MEL-2 melanoma) [µM] | TGI (SK-MEL-2 melanoma) [µM]
CO/N=C(\COc1ccc2c(c1)[nH]c1ccccc12)c1ccc(OC)cc1 | 92.3 | > 100 | > 100 | > 100 | > 100 | > 100 | 32.2 | > 100 | > 100 | > 100 | 28.3 | > 100 | 15.8 | > 100 | 15.2 | > 100 | 15.7 | > 100 |  | 
CC1=C2C(=C[C@@](C)(CO)[C@@H]2OC(=O)N(C)CCN(C)C(=O)OC(C)(C)C)C(=O)[C@](C)(O)C12CC2 | 5.27 | 14.3 | 8.3 | 26.2 | 12.8 | > 50 | 2.08 | 15.9 | 9.64 | 39.3 | 2.76 | > 50 | 1.22 | 4.06 | 5.25 | 46.1 | 8.84 | 16.4 | 7.63 | 17.3
CCCN1C(=O)NC(=O)C(CC)(N2C(=O)c3c(F)c(F)c(F)c(F)c3C2=O)C1=O (stereo unspecified) | 1.74 | 3.29 | 1.8 | 3.93 | 1.3 | 2.82 | 2.17 | 5.77 | 1.99 | 4.59 | 1.48 | 4.93 | 2.28 | 4.45 | 1.41 | 3.76 | 2.37 | 7.71 | 2.95 | 8.32
CN1CCN(C(=S)N(C)C(=O)c2ccco2)CC1 |  | > 100 |  | > 100 |  | > 100 |  | > 100 |  | > 100 |  |  |  | > 100 |  | > 100 |  | > 100 |  | > 100
C=C1CCC2C3(C)COC(C)(C)OC3CCC2(C)C1C/C=C1/C(=O)OCC1OC(C)=O (stereo unspecified) | 1.72 | 3.43 | 15.2 | 28.8 | 1.27 | 2.74 | 4.34 | 16.1 | 7.07 | 22.6 | 1.1 | 2.31 | 1.6 | 3.32 | 2.69 | 9.31 | 4.8 | 16.4 | 3.52 | 15.6
O=C1C=CC(=O)c2c1ccc1c3ccccc3n(Cc3ccc([N+](=O)[O-])cc3)c21 |  | > 100 |  | > 100 |  | > 100 |  | > 100 |  | > 100 |  | > 100 |  | > 100 |  | > 100 |  | > 100 |  | 
C=CCc1c(Cl)nc(Cl)nc1Cl |  | 0.696 |  | 3.4 |  | 0.583 |  | 1.81 |  | 1.82 |  | 1.18 |  | 0.601 |  | 1.74 |  | 0.301 |  | 
Nc1nc2ccc(-c3nc4ccc5[nH]ncc5c4c4c3CCC4)cc2s1 | 0.306 | 7.14 | 1.47 | 9.11 | 0.186 | 7.05 | 0.546 | 8.25 | 0.511 | 11.5 | 0.244 | 6.68 | 0.238 | 1.77 | 0.241 | 12.7 | 0.238 | 1.68 | 0.567 | 8.08
Cc1ccc2cnc(N)c(C#Cc3cc(C(=O)Nc4ccc(CN5CCN(C)CC5)c(C(F)(F)F)c4)cnc3C)c2c1 | 0.296 | 1.16 | 1.59 | 8.46 | 0.344 | 1.07 | 0.727 | 1.82 | 0.29 | 1.06 | 0.513 | 1.39 | 0.676 | 1.35 | 0.803 | 1.87 | 1.08 | 2.49 | 0.761 | 1.73
c1ccc(-c2nc(-c3ccccn3)nc(-c3ccccn3)n2)nc1 | 45.7 | > 100 | 75.5 | > 100 | 28 | > 100 | 54.9 | > 100 | 32.6 | > 100 | 19.4 | 78.6 | > 100 | > 100 | 48.6 | > 100 | 17.2 | 47.1 | 63.3 | > 100
O=C(O)c1nc(NCc2nc3cc(Cl)ccc3o2)n[nH]1 | > 100 | > 100 | > 100 | > 100 | > 100 | > 100 | > 100 | > 100 | > 100 | > 100 | > 100 | > 100 | > 100 | > 100 | > 100 | > 100 | > 100 | > 100 | > 100 | > 100
O=c1oc2ccccc2c2c1Sc1ccccc1N2 |  | > 100 |  | > 100 |  | > 100 |  | > 100 |  | > 100 |  | > 100 |  | > 100 |  | > 100 |  | > 100 |  | > 100
CN(C)c1cc2ccccc2oc1=O |  | > 100 |  | > 100 |  | > 100 |  | > 100 |  | > 100 |  | > 100 |  | > 100 |  | > 100 |  | > 100 |  | > 100
CC(C)=CCN1c2ccccc2NC(=O)CC1C (stereo unspecified) |  | > 100 |  | > 100 |  | > 100 |  | > 100 |  | > 100 |  |  |  | > 100 |  | > 100 |  | 85 |  | > 100
CCSC1=NC2C(N(CC)C(=O)N2CC)N1/N=C/C=C/c1ccccc1[N+](=O)[O-] (stereo unspecified) |  |  | 0.362 | 39.6 | 0.186 | > 100 | 0.351 | > 100 | 0.312 |  | 0.114 | > 100 | 0.033 | > 100 | 0.174 | > 100 | 0.112 | 0.538 | 0.567 | > 100
